ChEMBL document CHEMBL1287746, “The discovery of tricyclic pyridone JAK2 inhibitors. Part 1: hit to lead” (Bioorg Med Chem Lett, 2010)
In brackets after ≈: the same amount, converted by molar mass.

Columns and labels:
[1] = target: T1, Tyrosine-protein kinase JAK2 (Homo sapiens, UniProt O60674); assay: Inhibition of JAK2 in cell-free system
[2] = target: T1, Tyrosine-protein kinase JAK2; assay: Inhibition of JAK2 expressed in human Du-145 cells; type: cell-based
[3] = Clearance in Sprague-Dawley rat at 1 mg/kg, iv; type: ADME, organism-based; design: dose 1 mg/kg, route intravenous; conditions: in vivo
[4] = Volume of distribution in Sprague-Dawley rat at 1 mg/kg, iv; type: ADME, organism-based; design: dose 1 mg/kg, route intravenous; conditions: in vivo
[5] = Aqueous solubility of the compound at pH 7; type: physicochemical
[6] = Lipophilicity log D of the compound at pH 7.4 by HPLC; type: physicochemical; conditions: buffer
Mus musculus [7] = assay: Inhibition of JAK2 in erythropoietin-treated […] mouse assessed as reduction in pSTAT5 level in whole blood at 30 mg/kg, po measured after 1 and 3 hrs; type: functional, organism-based; design: dose 30 mg/kg, route oral
Mus musculus [8] = assay: Inhibition of JAK2 in erythropoietin-treated […] mouse assessed as reduction in pSTAT5 level in whole blood at 90 mg/kg, po measured after 1 and 3 hrs; type: functional, organism-based; design: dose 90 mg/kg, route oral

T1 sequence (O60674 whole entry): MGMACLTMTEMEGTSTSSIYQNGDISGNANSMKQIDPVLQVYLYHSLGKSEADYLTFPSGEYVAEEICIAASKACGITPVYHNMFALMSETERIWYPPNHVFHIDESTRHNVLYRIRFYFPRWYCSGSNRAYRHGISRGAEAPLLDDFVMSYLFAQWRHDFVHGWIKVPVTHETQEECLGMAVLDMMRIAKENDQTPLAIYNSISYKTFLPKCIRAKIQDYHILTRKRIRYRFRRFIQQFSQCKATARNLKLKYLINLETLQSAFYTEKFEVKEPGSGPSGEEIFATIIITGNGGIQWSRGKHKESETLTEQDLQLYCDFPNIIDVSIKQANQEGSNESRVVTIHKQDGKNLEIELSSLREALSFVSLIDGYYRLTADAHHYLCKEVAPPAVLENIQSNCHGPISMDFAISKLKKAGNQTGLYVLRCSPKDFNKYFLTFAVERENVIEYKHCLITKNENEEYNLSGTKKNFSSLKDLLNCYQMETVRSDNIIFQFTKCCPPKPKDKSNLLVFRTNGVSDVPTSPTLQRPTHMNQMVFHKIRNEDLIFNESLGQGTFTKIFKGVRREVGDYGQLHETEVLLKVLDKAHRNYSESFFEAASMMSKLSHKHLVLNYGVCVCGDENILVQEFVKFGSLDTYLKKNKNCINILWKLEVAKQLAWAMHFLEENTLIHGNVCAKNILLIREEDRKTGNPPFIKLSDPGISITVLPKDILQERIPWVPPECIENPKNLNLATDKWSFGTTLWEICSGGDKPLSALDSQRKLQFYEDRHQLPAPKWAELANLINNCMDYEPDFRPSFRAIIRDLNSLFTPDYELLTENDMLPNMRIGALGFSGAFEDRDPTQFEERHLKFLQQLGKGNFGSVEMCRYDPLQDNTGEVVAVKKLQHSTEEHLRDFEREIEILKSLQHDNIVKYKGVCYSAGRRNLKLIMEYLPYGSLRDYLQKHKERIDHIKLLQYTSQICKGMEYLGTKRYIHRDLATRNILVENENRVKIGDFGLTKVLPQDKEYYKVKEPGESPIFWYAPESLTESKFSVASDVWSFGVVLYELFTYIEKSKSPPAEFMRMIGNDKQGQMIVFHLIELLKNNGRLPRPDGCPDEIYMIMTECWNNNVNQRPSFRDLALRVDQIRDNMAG

Row | Structure (SMILES) | IC50 [1] [µM] | other results
1 | CC(C)Nc1nc2cc[nH]c(=O)c2c2cc(F)ccc12 | 0.139 | –
2 | CC(C)[C@H](C)Nc1nc2cc[nH]c(=O)c2c2cc(F)ccc12 | 0.027 | –
3 | O=c1[nH]ccc2nc(NC3CC(F)(F)C3)c3ccc(F)cc3c12 | 0.75 | –
4 | CC(C)[C@@H](Nc1nc2cc[nH]c(=O)c2c2cc(F)ccc12)C(F)(F)F | 0.001 | IC50 [2]: 0.05 µM; clearance [3]: 21 mL/min/kg; Vd [4]: 6 L/kg; solubility [5]: 3 µM (≈ 1.06 µg/mL); logD [6]: 3.34
5 | CC(C)[C@H](Nc1nc2cc[nH]c(=O)c2c2cc(F)ccc12)C(F)(F)F | 0.055 | –
6 | CC(C)(CO)CNc1nc2cc[nH]c(=O)c2c2cc(F)ccc12 | 0.274 | –
7 | CC(C)[C@@H](Nc1nc2cc[nH]c(=O)c2c2cnccc12)C(F)(F)F | 0.001 | IC50 [2]: 0.04 µM; clearance [3]: 68 mL/min/kg; Vd [4]: 8 L/kg; solubility [5]: 120 µM (≈ 40.4 µg/mL); IC50 (Mus musculus [7]): 2.7 µM; IC50 (Mus musculus [8]): 2.7 µM; logD [6]: 2.33
8 | O=c1[nH]ccc2nc(NCc3ccncc3)c(-c3ccccc3)cc12 | 1.4 | –
9 | CC(C)(C)CNc1nc2cc[nH]c(=O)c2cc1-c1ccc(F)cc1 | 29 | –
10 | O=c1[nH]ccc2nc(N3CCC(F)(F)C3)c(-c3ccc(F)cc3)cc12 | 3.94 | –
11 | CC(Nc1nc2cc[nH]c(=O)c2cc1-c1ccc(F)cc1)c1cc(F)c(Cl)cc1Cl (stereo unspecified) | 11.8 | –
12 | CC(Nc1nc2cc[nH]c(=O)c2cc1-c1ccccn1)C(C)(C)C (stereo unspecified) | 0.63 | –
13 | CC(Nc1nc2cc[nH]c(=O)c2cc1-c1nc(-c2ccccc2)no1)C(C)(C)C (stereo unspecified) | 11.5 | –
14 | CC(Nc1nc2cc[nH]c(=O)c2cc1C(=O)NCCN(C)C)C(C)(C)C (stereo unspecified) | 8.35 | –
15 | CC(Nc1nc2cc[nH]c(=O)c2c2cc(F)ccc12)C(C)(C)C (stereo unspecified) | 0.026 | –
16 | CC(C)(CN)CNc1nc2cc[nH]c(=O)c2c2cc(F)ccc12 | 3.16 | –
17 | O=c1[nH]ccc2nc(NCC3CCS(=O)(=O)C3)c3ccc(F)cc3c12 (stereo unspecified) | 0.512 | –
18 | O=c1[nH]ccc2nc(NCc3ccccn3)c3ccc(F)cc3c12 | 1.11 | –
19 | O=c1[nH]ccc2nc(NCc3c(Cl)cccc3Cl)c3ccc(F)cc3c12 | 0.053 | –
20 | CN1CCC(N(c2nc3cc[nH]c(=O)c3c3cc(F)ccc23)C2CC2)CC1 | 0.54 | –
21 | O=c1[nH]ccc2nc(Nc3cccc(F)c3)c3ccc(F)cc3c12 | 4.1 | –
22 | O=c1[nH]ccc2nc(Nc3c(F)cc(F)cc3Cl)c3ccc(F)cc3c12 | 0.004 | –
23 | O=c1[nH]ccc2nc(Nc3c(Cl)cccc3Cl)c3ccc(F)cc3c12 | 0.014 | –
24 | O=c1[nH]ccc2nc(NC3CCC3)c3ccc(F)cc3c12 | 0.075 | –
